Series [1] concerns Staphylococcus aureus. Briefly: Antibacterial activity against methicillin-resistant Staphylococcus aureus N315 assessed as bacterial growth inhibition by serial dilution method. In kind it is functional.
Series [2] relates to Enterococcus faecalis. Briefly: Antibacterial activity against Enterococcus faecalis assessed as bacterial growth inhibition by serial dilution method. In kind it is functional.
Series [3] relates to Staphylococcus aureus. As to the kind of experiment: Antibacterial activity against Staphylococcus aureus assessed as bacterial growth inhibition by serial dilution method. In kind it is functional.
In series [4] the test system is Staphylococcus aureus. As to the kind of experiment: Antibacterial activity against Staphylococcus aureus ATCC 25923 assessed as bacterial growth inhibition by serial dilution method. In kind it is functional.
In series [5] the test system is Staphylococcus aureus. As to the kind of experiment: Antibacterial activity against Staphylococcus aureus ATCC 29213 assessed as bacterial growth inhibition by serial dilution method. In kind it is functional.
The next series has as its system Klebsiella pneumoniae. Briefly: Antibacterial activity against Klebsiella pneumoniae assessed as bacterial growth inhibition by serial dilution method. In kind it is functional.
Series [6] relates to Escherichia coli. Briefly: Antibacterial activity against Escherichia coli assessed as bacterial growth inhibition by serial dilution method. In kind it is functional.
The test system of series [7] is Escherichia coli. As to the kind of experiment: Antibacterial activity against Escherichia coli ATCC 25922 assessed as bacterial growth inhibition by serial dilution method. In kind it is functional.
Series [8] concerns Pseudomonas aeruginosa. Briefly: Antibacterial activity against Pseudomonas aeruginosa assessed as bacterial growth inhibition by serial dilution method. In kind it is functional.
For series [9], the system named is Pseudomonas aeruginosa. Briefly: Antibacterial activity against Pseudomonas aeruginosa ATCC 27853 assessed as bacterial growth inhibition by serial dilution method. In kind it is functional.
Another series deals with Acinetobacter baumannii. As to the kind of experiment: Antibacterial activity against Acinetobacter baumannii assessed as bacterial growth inhibition by serial dilution method. In kind it is functional.
For series [10], the system named is Enterococcus faecalis. As to the kind of experiment: Potency index, ratio of norfloxacin MIC to test compound MIC for antibacterial activity against Enterococcus faecalis assessed as bacterial growth inhibition by serial dilution method. In kind it is functional.
Series [11] concerns Enterococcus faecalis. As to the kind of experiment: Potency index, ratio of ciprofloxacin MIC to test compound MIC for antibacterial activity against Enterococcus faecalis assessed as bacterial growth inhibition by serial dilution method. In kind it is functional.
For series [12], the system named is Staphylococcus aureus. As to the kind of experiment: Potency index, ratio of norfloxacin MIC to test compound MIC for antibacterial activity against Staphylococcus aureus ATCC 25923 assessed as bacterial growth inhibition by serial dilution method. In kind it is functional.
Series [13] deals with Staphylococcus aureus. As to the kind of experiment: Potency index, ratio of norfloxacin MIC to test compound MIC for antibacterial activity against Staphylococcus aureus ATCC 29213 assessed as bacterial growth inhibition by serial dilution method. In kind it is functional.
A further series deals with Aspergillus fumigatus. Briefly: Antifungal activity against Aspergillus fumigatus assessed as inhibition of fungal growth. In kind it is functional.
The nature of series [14]: Cytotoxicity against human HaCaT cells assessed as cell viability at 12.5 ug/ml by CCK-8 assay relative to control. In kind it is toxicity, cell-based. The settings on record: at 12.5 µg/mL, read-out: Activity. On the technique in general: Tetrazolium dyes change colour on reduction, which living cells bring about.
Series [15] can be described thus: Cytotoxicity against human HaCaT cells assessed as cell viability at 50 ug/ml by CCK-8 assay relative to control. The settings on record: at 50 µg/mL, read-out: Activity. In kind it is toxicity, cell-based.
In series [16] the test system is Enterococcus faecalis. Briefly: Bactericidal activity against Enterococcus faecalis assessed as log reduction in bacterial colony count at 1 times MIC measured after 6 hrs. In kind it is functional.
Series [17] relates to Enterococcus faecalis. Briefly: Bactericidal activity against Enterococcus faecalis assessed as log reduction in bacterial colony count at 4 times MIC measured after 6 hrs. In kind it is functional.
Series [18] relates to Enterococcus faecalis. Briefly: Inhibition of biofilm formation in Enterococcus faecalis at 2 ug/ml incubated for 24 hrs by crystal violet staining based analysis relative to control. In kind it is functional.
The nature of series [19]: Induction of intracellular ROS accumulation in Enterococcus faecalis assessed as fold increase in fluorescence intensity at 8 times MIC by DCFH-DA dye based fluorescence assay. In kind it is functional.
The test system of series [20] is Calf thymus DNA. As to the kind of experiment: Binding affinity to calf thymus DNA assessed as red shift in absorption peak by UV-Vis spectrophotometric analysis. As to conditions: Bos taurus.
The test system of series [21] is Calf thymus DNA. As to the kind of experiment: Binding affinity to calf thymus DNA assessed as DNA-compound complex formation by measuring hyperchromicity by UV-Vis spectrophotometric analysis. In kind it is tissue-based. The settings on record: Bos taurus.
Series [22] relates to Calf thymus DNA. As to the kind of experiment: Binding affinity to calf thymus DNA assessed as binding constant by UV-Vis spectrophotometric analysis. The settings on record: Bos taurus.
Series [23] relates to Calf thymus DNA. As to the kind of experiment: Binding affinity to calf thymus DNA assessed as reduction in acridine orange-DNA complex formation by competitive binding assay. As to conditions: Bos taurus.
Another series deals with Candida parapsilosis. As to the kind of experiment: Antifungal activity against Candida parapsilosis ATCC 22019 assessed as inhibition of fungal growth. In kind it is functional. The settings on record: Lodderomyces parapsilosis.
The subject of another series is Candida tropicalis. As to the kind of experiment: Antifungal activity against Candida tropicalis assessed as inhibition of fungal growth. In kind it is functional.

Values after ≈ are worked out from the molar mass of the structure shown. Active and inactive are the calls of the source.

As usually defined, the MIC is the smallest concentration in the dilution series that meets the test's criterion for growth inhibition. Usually inhibition stands for the share of the control response that was lost under treatment.

With `CCn1cc(C(=O)O)c(=O)c2cc(F)c(N3CCN(c4nccc(N)n4)CC3)cc21`, the MIC in the series on Staphylococcus aureus [1] stood at 1 µg/mL (≈ 2.42 µM); in the series with Enterococcus faecalis [2], 0.25 µg/mL (≈ 0.606 µM); in the series on Staphylococcus aureus [3], 1 µg/mL (≈ 2.42 µM); with Staphylococcus aureus [4] it was 0.5 µg/mL (≈ 1.21 µM); with Staphylococcus aureus [5], 0.5 µg/mL (≈ 1.21 µM); with Klebsiella pneumoniae, 0.5 µg/mL (≈ 1.21 µM). In addition, the minimum inhibitory concentration (MIC) came out at 4 µg/mL (≈ 9.7 µM) with Escherichia coli [6]; 16 µg/mL (≈ 38.8 µM) with Escherichia coli [7]; 0.25 µg/mL (≈ 0.606 µM) in the series with Pseudomonas aeruginosa [8]; 0.5 µg/mL (≈ 1.21 µM) with Pseudomonas aeruginosa [9]; 4 µg/mL (≈ 9.7 µM) with Acinetobacter baumannii; 2 µg/mL (≈ 4.85 µM) in the series on Aspergillus fumigatus. Also, the Ratio in the series on Enterococcus faecalis [10] is 16; with Enterococcus faecalis [11], 4; in the series on Staphylococcus aureus [12], 4; with Staphylococcus aureus [13], 8. In series [14], the viability at 12.5 ug/ml is > 90%. The viability at 50 ug/ml in [15] turned out to be 70%. Also, the figures for the “log(activity)” value in the series with Enterococcus faecalis [16] and in the series with Enterococcus faecalis [17] were 2.5 and 3.5, respectively. The compound further returned an inhibition at 2 µg/mL with Enterococcus faecalis [18] of 53.9%. Besides, the “fold change (FC)” value in [19] stood at 2.5. The outcome in the series on Calf thymus DNA [20], in the series on Calf thymus DNA [21] and with Calf thymus DNA [23] was Active. The K in the series on Calf thymus DNA [22] was 1.01 10^5L/mol.
On to `COc1cnc(N2CCN(c3cc4c(cc3F)c(=O)c(C(=O)O)cn4C3CC3)CC2)nc1`, for which the MIC in the series with Staphylococcus aureus [1] was determined as 32 µg/mL (≈ 72.8 µM); with Enterococcus faecalis [2], 32 µg/mL (≈ 72.8 µM); in the series with Staphylococcus aureus [3], 256 µg/mL (≈ 583 µM); in the series with Staphylococcus aureus [4], 8 µg/mL (≈ 18.2 µM); with Staphylococcus aureus [5], 2 µg/mL (≈ 4.55 µM); in the series with Klebsiella pneumoniae it was 16 µg/mL (≈ 36.4 µM). The minimal inhibitory concentration (MIC) stood at 64 µg/mL (≈ 146 µM) in the series on Escherichia coli [6]; 4 µg/mL (≈ 9.1 µM) in the series on Escherichia coli [7]; 64 µg/mL (≈ 146 µM) in the series on Pseudomonas aeruginosa [8]; 32 µg/mL (≈ 72.8 µM) with Pseudomonas aeruginosa [9]; 1 µg/mL (≈ 2.28 µM) in the series on Acinetobacter baumannii; 2 µg/mL (≈ 4.55 µM) in the series on Candida parapsilosis. Further, the minimal inhibitory concentration (MIC) with Candida tropicalis amounted to 2 µg/mL (≈ 4.55 µM).

Source of the values: ChEMBL document CHEMBL5104131, “Pyrimidine-conjugated fluoroquinolones as new potential broad-spectrum antibacterial agents” (Bioorg Med Chem Lett, 2022).
